Test results as given in publication PMC9413514, “Accessing Lipophilicity and Biomimetic Chromatography Profile of Biologically Active Ingredients of Botanicals Used in the Treatment of Inflammatory Bowel Disease” (Pharmaceuticals, 2022).

Legend:
[1] = tested on: α1-acid glycoprotein (AGP); assay: AGP-HPAC assay (plasma protein binding); assay type: in vitro ADME; details: Chiralpak-AGP, pH 7.4, 25 °C; spread is RSD in %
Description: (§1) The gradient retention times obtained by HSA-HPAC and AGP-HPAC assays were standardized using a calibration set of compounds with known percentage of plasma protein binding data and procedure described in our previously published study. […] This verification assured that the protein affinity indices obtained by HPAC assays depict not only unspecific generally lipophilicity-driven interactions, but also highly specific recognition forces responsible of enantioselectivity.
(§2) Stock solutions of analytes and calibration standards were prepared by dissolving 10 mg of each solute in 10 mL of methanol and kept at 4 °C. Working solutions were freshly prepared at the beginning of each day by dilution of the stock solutions to 100 μg/mL with methanol for TLC measurements or mobile phase for HPLC measurements. Before use, the samples were sonicated (Elmasonic XtraTT, Elma Schmidbauer) for 10 min at 25 °C and all working solutions were filtered through 0.2 µm polyethersulfone filters (Obrnuta faza). To protect analytes from photodegradation, the amber glass HPLC vials were used.
(§3) The binding of biologically active compounds to the plasma proteins was investigated using affinity chromatographic columns by ChromTech (Cedex, France) containing immobilized human serum albumin (HSA) (Chiralpak-HSA, length 50 mm, i.d. 4.6 mm, particle size 5 µm) and α1-acid glycoprotein (AGP) (Chiralpak-AGP, length 50 mm, i.d. 4.6 mm, particle size 5 µm) and Agilent HPLC 1100 instrument. The 20 mM potassium phosphate buffer with the pH adjusted to 7.4 and iso-propanol were used as mobile phase components A and B. Retention data were collected at 25.0 ± 0.1 °C using gradient program as follows: 0 min/0% B, 6 min/30% B, 15 min/30% B and 20 min/0% B. Injection volume was set at 10 µL and the measurements were carried out at 25.0 ± 0.1 °C with flow rate of 1.5 mL/min. The absorbance of the analytes during a chromatographic run was collected in the spectral range 200–400 nm, and the detection wavelength for each analyte was the one providing the maximum peak height.

[2] = molecular target: T1, human serum albumin (HSA) (Homo sapiens, UniProt P02768); assay: HSA-HPAC assay (plasma protein binding); assay type: in vitro ADME; details: Chiralpak-HSA, pH 7.4, 25 °C; spread is RSD in %
T1 construct: purchased ChromTech (Cedex, France) Chiralpak-HSA
Description: as §1, §2, §3

[3] = IAM-HPLC assay (lipophilicity, affinity to phospholipids); assay type: physicochemical
Method: IAM columns provide potential to simulate membrane permeability since the amphiphilic character of phospholipid functional groups plays an important role in IAM retention especially when charged molecules are analysed.
as §2
C18-HPLC assay was carried out at Agilent HPLC 1100 and Zorbax SB C18 chromatographic column (length 250 mm.6 mm, particle size 5 µm) by Agilent Technologies, while IAM-HPLC assay was conducted using IAM P.C.DD2 chromatographic column (length 50 mm, i.d. 3.0 mm, particle size […]) by Regis Technologies (Morton Grove, IL, USA). Retention data were collected at 25.0 ± 0.1 °C using isocratic method working with mobile phases, mixing the respective amounts of PBS (10 mM, pH 7.4) and methanol from 35% to 80% of organic solvent in 5% increment. Each mobile phase was shaken vigorously and filtrated through membrane filter, no. 66, diameter 47 mm, pore size 0.45 µm by Supelco and degassed by sonication 5 min before use. The injection volume was set at 10 µL, and the measurements were carried out at flow rate 1.0 mL/min. Natrium nitrate solution (0.1 mg/mL in mobile phase) was used as the marker of dead-time. The absorbance of the analytes during a chromatographic run was collected in the spectral range of 200–400 nm, and the detection wavelength for each analyte was the one providing the maximum peak height.

[4] = C18-TLC assay (hydrophobicity); assay type: physicochemical; details: for RM0 (TLC hydrophobicity index, intercept of linear equation): RP-18 TLC, PBS pH 7.4/methanol, extrapolated to zero organic modifier; for spot migration in C18-TLC: regardless the percentage of the organic modifier in the mobile phase
Description: In TLC measurements RF value depends on the chemical structure of analyte and its interaction with stationary and mobile phase. […] As it was expected, with increase in the percentage of organic modifier in the mobile phase the increase in RF values can be seen with accompanied decrease in RM values expressed as RM = log(1/RF - 1). Measured RF values were in the range from 0.1 to 0.7 obtained in a wide range of mobile phase organic modifier concentrations. […] Increasing concentration of the organic modifier in the mobile phase caused a slower decrease in the RM values for less hydrophobic analytes than for more hydrophobic ones. […] Increase in the hydrophobicity within curcuminoids and andrographolides is related to increase in lipophilicity determined by shake-flask method (Table 3). Stock solutions of analytes and calibration standards were prepared by dissolving 10 mg of each solute in 10 mL of methanol and kept at 4 °C. Working solutions were freshly prepared at the beginning of each day by dilution of the stock solutions to 100 μg/mL with methanol for TLC measurements or mobile phase for HPLC measurements. Before use, the samples were sonicated (Elmasonic […]) for 10 min at 25 °C and all working solutions were filtered through 0.2 μm polyethersulfone filters (Obrnuta faza). To protect analytes from photodegradation, the amber glass HPLC vials were used. Analyses were carried out using a commercially available 10 cm x 20 cm RP-18 TLC plates with fluorescent indicator (Merck KGaA). 5 μL of each working solution ([…]) was applied to the plates as 5 mm bends, 10 mm from the lower edge and 15 mm from sides of plates. The mobile phases were prepared by mixing the respective amounts of PBS (20 mM, pH 7.4) and methanol from 50% to 80% of organic solvent in 5% increment. The vertical flat-bottom chamber ([…], Switzerland) with a stainless-steel lid was saturated with mobile phase for 30 min. The plates were developed to a distance of 9 cm at room temperature, dried in the open air for 5 min and visualized under λ = 254 nm UV light (UV Cabinet with Dual Wavelength UV lamp by Camag).

[5] = Miniaturized shake-flask method (n-octanol/PBS pH 7.4) with HPLC analysis; assay type: physicochemical; details: n-octanol/PBS 20 mM pH 7.4, 25 °C; spread is RSD in %; read-out: log D7.4 ± RSD (%) (n = 3)
Method: Stock solution of biologically active ingredients of botanicals used in IBD treatment were prepared using dimethylsulfoxide in concentration of 2 mg/mL. Working solutions were prepared daily by dilution of the stock solutions with PBS (20 mM, pH 7.4) pre-saturated with n-octanol. Before the injection into the HPLC system all solutions were sonicated for 15 min at room temperature in Elmasonic XtraTT (Elma Schmidbauer, Singen, Germany) and filtered through 0.2 μm polyethersulfone filters (Obrnuta faza, Pazin, Croatia).
The pre-saturated solutions of n-octanol and PBS (20 mM, pH 7.4) were used for determination of logarithm of distribution coefficient (log D7.4). The n-octanol and aqueous phase (mixture 1:1, v/v) were mutually saturated for 24 h in an orbital shaker-incubator ES-20/60 (Biosan, Riga, Latvia) at 100 oscillations per min at 25.0 ± 0.1 °C. The prepared mixture was left resting for at least 12 h in the thermostat at 25.0 ± 0.1 °C to ensure complete separation of the two phases. Until analysis, separated saturated solutions were kept in refrigerator at 4 °C.
Shake-flask procedure was conducted in amber 2 mL HPLC vials. 300 μL of the working solution was added to 1500 μL of n-octanol pre-saturated with PBS. To prevent material loss due to volatilisation, the two-phase system nearly filled the entire volume of the test vessels. All n-octanol–buffer mixtures were first vortexed for 1 min and then shaken for 1 h (150 oscillations per min) at room temperature (25.0 ± 0.1 °C) to reach equilibrium and phase distribution. Afterward, the samples were centrifuged using a Z 326 K tabletop centrifuge (HERMLE Labortechnik, Wehingen, Germany) for 30 min at 4000× g and 25 °C to ensure that possible emulsions were removed.
After equilibration and phase separation, the aqueous phase of all samples was analysed on an Agilent HPLC 1100 (Agilent Technologies, Waldbronn, Germany) with diode array detection. Analysis was conducted with a Zorbax SB C18 column (length 150 mm, i.d. 4.6 mm, particle size 5 μm) by Agilent Technologies. 10 min chromatographic runs were performed at 25.0 ± 0.1 °C in isocratic mode using a methanol/water mixture (60/40, v/v) with addition of 0.1% of formic acid as mobile phase modifier at a flow rate of 1.0 mL/min. The mobile phase was filtered through a membrane filter, no. 66, diameter 47 mm, pore size 0.45 µm (Supelco, Bellefonte, PA, USA). The vials were placed in the rack on the autosampler at 25 °C. The injection volume was 10 µL, with a needle offset of 0.5 mm. To avoid any carryover of the analyte-containing n-octanol phase, the outside of the syringe was subsequently washed in methanol before injection. The absorbance of the analytes during a chromatographic run was collected in the spectral range 200–400 nm, and the detection wavelength for each analyte was the one providing the maximum peak height.

[6] = IAM P.C.DD2 column, PBS pH 7.4/methanol, extrapolated to zero organic modifier

T1 sequence (P02768 25-609): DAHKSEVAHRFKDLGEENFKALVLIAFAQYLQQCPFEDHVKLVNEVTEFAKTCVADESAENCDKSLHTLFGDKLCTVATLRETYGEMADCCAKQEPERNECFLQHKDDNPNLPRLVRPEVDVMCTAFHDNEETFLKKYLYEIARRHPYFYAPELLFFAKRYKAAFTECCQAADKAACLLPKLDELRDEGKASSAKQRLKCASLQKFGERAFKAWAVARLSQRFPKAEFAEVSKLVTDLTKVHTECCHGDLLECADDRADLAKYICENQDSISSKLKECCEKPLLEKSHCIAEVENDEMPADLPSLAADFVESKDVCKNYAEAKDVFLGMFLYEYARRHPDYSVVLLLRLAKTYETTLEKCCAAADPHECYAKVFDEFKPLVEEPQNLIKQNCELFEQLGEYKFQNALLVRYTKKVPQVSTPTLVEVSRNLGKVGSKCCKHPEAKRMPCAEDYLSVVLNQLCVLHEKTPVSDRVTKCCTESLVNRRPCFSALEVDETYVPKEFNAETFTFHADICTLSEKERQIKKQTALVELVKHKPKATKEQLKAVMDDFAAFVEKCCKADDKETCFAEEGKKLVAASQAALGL

| Structure (SMILES) | AGP Binding ± RSD (%) (n = 3) [1] | HSA Binding ± RSD (%) (n = 3) [2] | logk0 IAM (HPLC lipophilicity index, intercept of linear equation) ([3]; pH 7.4) | RM0 (TLC hydrophobicity index, intercept of linear equation) [4] | Δ RM0 (increase compared to 11-keto-β-boswellic acid) ([4]; compared to 11-keto-β-boswellic acid) [units] | logk0 IAM (HPLC lipophilicity index, intercept of linear equation) [3, 6] | logD at 1 h [5] | spot migration in C18-TLC [4] |
| --- | --- | --- | --- | --- | --- | --- | --- | --- |
| CC(=O)O[C@@H]1CC[C@@]2(C)[C@@H](CC[C@]3(C)[C@@H]2C(=O)C=C2[C@@H]4[C@@H](C)[C@H](C)CC[C@]4(C)CC[C@]23C)[C@@]1(C)C(=O)O [3-Acetyl-11-keto-β-boswellic Acid, 3-acetyl-11-keto-β-boswellic acid] | 83.10 ± 0.37 | 99.83 ± 0.47 | y = −0.0703 x + 5.1157 | y = −0.0722 x + 6.9059 | 1.53 | – | – | – |
| CC1CCC2(C)CCC3(C)C(=CC(=O)C4C5(C)CCC(O)C(C)(C(=O)O)C5CCC43C)C2C1C (stereo not drawn) [11-Keto-β-boswellic Acid, 11-keto-β-boswellic acid] | 79.01 ± 0.20 | 98.09 ± 0.02 | – | y = −0.0564 x + 5.3756 | – | y = −0.0570 x + 4.9194 | – | – |
| COc1cc(/C=C/C(=O)CC(=O)/C=C/c2ccc(O)c(OC)c2)ccc1O [Curcumin, curcumin] | 83.07 ± 1.10 | 97.52 ± 0.20 | – | – | – | – | 1.94 | – |
| CC1(C)CCC2(C)CCC3(C)C(=CCC4C5(C)CCC(O)C(C)(C(=O)O)C5CCC43C)C2C1 (stereo not drawn) [α-Boswellic Acid, α-boswellic acid] | 89.22 ± 0.30 | 98.94 ± 0.35 | – | – | – | y = −0.0788 x + 6.3109 | – | no spot migration was observed |
| C[C@H]1[C@H](C)CC[C@]2(C)CC[C@]3(C)C(=CC[C@@H]4[C@@]5(C)CC[C@@H](O)[C@](C)(C(=O)O)[C@@H]5CC[C@]43C)[C@H]12 [β-Boswellic Acid, β-boswellic acid] | 89.15 ± 2.04 | 99.79 ± 0.30 | y = −0.0816 x + 6.5157 | – | – | – | – | no spot migration was observed |
